Source: patent US11492342B2, “Crystalline forms of piperazine-1,4-diylbis((6-(1H-benzo[d]imidazo-2-yl)pyridin-2yl)methanone)” (Landos Biopharma, Inc., priority 2020, dated 2022)
Like-named read-outs stand apart in the source and are kept apart here.

Columns and labels:
[1] = system: CD25/STAT5 signaling and late-stage glycolysis; details: human cells; cited from earlier work
[2] = cited from earlier work
[3] = system: TNFα production in the gastrointestinal tract, fecal calprotectin; details: mice; cited from earlier work
[4] = system: CD25/STAT5 signaling and late-stage glycolysis; details: murine cells; cited from earlier work
[5] = Pharmacokinetic analysis: oral dosing to mice, BT-11 in plasma and colonic tissue by LC/MS/MS; details: for Colon BT-11 Concentration / Plasma BT-11 Cmax: oral; for Colon BT-11 Concentration: colon 4 hours post-dose
Description: BT-11 Form 0, Form 1, and Form 2 were orally dosed to male and female mice (n=4) to provide 8 mg/kg. Plasma was collected at 1, 2, and 4 hours post-dose. At 4 hours post-dose, colons were excised and washed in PBS. Tissues were then homogenized by Fast-Prep24 instrument. Plasma and tissue homogenate were prepared by acetonitrile-based liquid-liquid extraction. BT-11 concentrations were determined by LC/MS/MS analysis using a linear calibration curve.

[6] = Particle size distribution (PSD) analysis; assay type: physicochemical
Description: Particle size distribution analysis was carried out using a particle size analyzer with a dispersion cell. Approximately 50 mg of sample was weighed into a 20 mL scintillation vial and 10 mL of dispersant was added. The sample was sonicated for 30 seconds, aspirated with a glass pipette, and then added to the dispersion unit. The sample was circulated for 30 seconds to allow the dispersion to stabilize.

[7] = Dynamic vapor sorption (DVS); assay type: physicochemical; details: for re-crystallization or form change during the DVS experiment: DVS kinetic plot
Description: Approximately, 10 mg of sample was placed into a mesh vapor sorption balance pan and loaded into a DVS-1/DVS Intrinsic/DVS Advantage dynamic vapor sorption balance by Surface Measurement Systems. The sample was subjected to a ramping profile from 40-90% relative humidity (RH) at 10% increments, maintaining the sample at each step until a stable weight had been achieved (dm/dt 0.004%, minimum step length 30 min, maximum step length 500 min) at 25° C. After completion of the sorption cycle, the sample was dried using the same procedure to 0% RH and then a second sorption cycle back to 40% RH. Two cycles were performed. The weight change during the sorption/desorption cycles were plotted, allowing for the hygroscopic nature of the sample to be determined. XRPD analysis was then carried out on any solid retained.

[8] = Solid form change on drying, followed by XRPD; assay type: physicochemical
Description: XRPD analysis was carried out, scanning the samples between 3 and 35° 2θ. The material was gently ground to release any agglomerates and loaded onto a multi-well plate with polymer film to support the sample. The multi-well plate was then placed into the diffractometer and analyzed using Cu K radiation (α1λ=1.54060 Å; α2=1.54443 Å; β=1.39225 Å; α1:α2 ratio=0.5) running in transmission mode (step size 0.0130° 2θ, step time 18.87 s) using 40 kV/40 mA generator settings. Data were visualized and analyzed.

[9] = mice, 8 mg/kg, plasma collected at 1, 2 and 4 hours post-dose
[10] = DVS, 25° C., listed as BT-11 Form 1
[11] = DVS, 25° C., listed as BT-11 Form 2
[12] = DVS, 25° C., listed as BT-11 Form 3

O=C(c1cccc(-c2nc3ccccc3[nH]2)n1)N1CCN(C(=O)c2cccc(-c3nc4ccccc4[nH]3)n2)CC1 [piperazine-1,4-diylbis((6-(1H-benzo[d]imidazo-2-yl)pyridine-2-yl)methanone)]
CD25/STAT5 signaling and late-stage glycolysis [1]: induces changes
systemic absorption when orally administered [2]: poorly systemically absorbed
fecal calprotectin levels [3]: reduces
local TNFα production in the gastrointestinal tract [3]: reduces
CD25/STAT5 signaling and late-stage glycolysis [4]: induces changes

Cl.Cl.O=C(c1cccc(-c2nc3ccccc3[nH]2)n1)N1CCN(C(=O)c2cccc(-c3nc4ccccc4[nH]3)n2)CC1 [Form 1, piperazine-1,4-diylbis((6-(1H-benzo[d]imidazo-2-yl)pyridine-2-yl)methanone)]
Colon BT-11 Concentration ([5]; mice, 8 mg/kg): 3000 ng/g
Plasma BT-11 Cmax [5, 9]: 177 ng/mL
d10 ([6]; listed as BT-11 Form 1): 0.1 μm
d50 ([6]; listed as BT-11 Form 1): 0.5 μm
d90 ([6]; listed as BT-11 Form 1): 40.8 μm
re-crystallization or form change during the DVS experiment ([7]; listed as BT-11 Form 1): no evidence of re-crystallization or form change
hygroscopic nature [7, 10]: hygroscopic
total mass increase up to 90% RH [7, 10]: 24%
total mass lost below 20% RH [7, 10]: 6.0%

Cl.Cl.O=C(c1cccc(-c2nc3ccccc3[nH]2)n1)N1CCN(C(=O)c2cccc(-c3nc4ccccc4[nH]3)n2)CC1 [Form 2, piperazine-1,4-diylbis((6-(1H-benzo[d]imidazo-2-yl)pyridine-2-yl)methanone)]
Colon BT-11 Concentration ([5]; mice, 8 mg/kg): 4470 ng/g
Plasma BT-11 Cmax [5, 9]: 41 ng/mL
confinement to the gastrointestinal tract after oral administration ([5]; mouse, in vivo, po): increased confinement to the gastrointestinal tract
d10 ([6]; listed as BT-11 Form 2): 18.2 μm
d50 ([6]; listed as BT-11 Form 2): 31.9 μm
d90 ([6]; listed as BT-11 Form 2): 83.9 μm
re-crystallization or form change during the DVS experiment ([7]; listed as BT-11 Form 2): no evidence of re-crystallization or form change
mass uptake on 2nd cycle ([7]; DVS, 25° C., 2nd cycle): 0.23%
hygroscopic nature [7, 11]: slightly hygroscopic
total mass increase up to 90% RH [7, 11]: 0.32%

Cl.Cl.O=C(c1cccc(-c2nc3ccccc3[nH]2)n1)N1CCN(C(=O)c2cccc(-c3nc4ccccc4[nH]3)n2)CC1 [Form 3, piperazine-1,4-diylbis((6-(1H-benzo[d]imidazo-2-yl)pyridine-2-yl)methanone)]
re-crystallization or form change during the DVS experiment ([7]; listed as BT-11 Form 3): No evidence of re-crystallization or form change
total moisture uptake due to surface moisture ([7]; DVS, 25° C.): 2.8%
total mass increase up to 90% RH [7, 12]: 7.8%
total mass lost below 20% RH [7, 12]: 5.0%

O=C(c1cccc(-c2nc3ccccc3[nH]2)n1)N1CCN(C(=O)c2cccc(-c3nc4ccccc4[nH]3)n2)CC1 [Form 0, piperazine-1,4-diylbis((6-(1H-benzo[d]imidazo-2-yl)pyridine-2-yl)methanone)]
Cmax ([5]; both, mouse, plasma, po, 8 mg/kg, Plasma BT-11 Cmax, mice, plasma collected at 1, 2 and 4 hours post-dose): 186 ng/mL
Colon BT-11 Concentration ([5]; mice, 8 mg/kg): 1280 ng/g
d10 [6]: 0.2 μm
d50 [6]: 6.3 μm
d90 [6]: 19.8 μm

Cl.Cl.O=C(c1cccc(-c2nc3ccccc3[nH]2)n1)N1CCN(C(=O)c2cccc(-c3nc4ccccc4[nH]3)n2)CC1 [Form 7, piperazine-1,4-diylbis((6-(1H-benzo[d]imidazo-2-yl)pyridine-2-yl)methanone)]
form change post-drying [8]: convert to Form 2
